From US12065442B2, “Tropomyosin receptor kinase (TRK) degradation compounds and methods of use” (Cullgen (Shanghai), Inc., priority 2018, dated 2024) come the findings set out here.

One experiment relates to KM12 cells. Nature of the experiment: Cell viability assay (CellTiter-Glo) in KM12 cells. The experiment is classed as cell-based. The conditions noted are these: Homo sapiens, 72 h; Table 3; KM12 cell viability, CellTiter-Glo, 3 days; read-out: IC50.
Regarding `O=C1CCC(N2C(=O)c3ccc(N4CC(N5CCN(c6cccc(-c7cnc8ccc(N9CCC[C@@H]9c9cccc(F)c9)nn78)n6)CC5)C4)cc3C2=O)C(=O)N1` (stereo partly drawn) [TR-184, 2-(2,6-dioxopiperidin-3-yl)-5-(3-(4-(6-(6-((R)-2-(3-fluorophenyl)pyrrolidin-1-yl)imidazo[1,2-b]pyridazin-3-yl)pyridin-2-yl)piperazin-1-yl)azetidin-1-yl)isoindoline-1,3-dione], the IC50 worked out at 9.3 nM.
Same read-out and setting: in the case of `O=C1CCC(N2Cc3ccc(CCCN4CCN(c5cccc(-c6cnc7ccc(N8CCC[C@@H]8c8cccc(F)c8)nn67)n5)CC4)cc3C2=O)C(=O)N1` (stereo partly drawn) [TR-185, 3-(6-(3-(4-(6-(6-((R)-2-(3-fluorophenyl)pyrrolidin-1-yl)imidazo[1,2-b]pyridazin-3-yl)pyridin-2-yl)piperazin-1-yl)propyl)-1-oxoisoindolin-2-yl)piperidine-2,6-dione] it was 17.1 nM; in that of `O=C1CCC(N2Cc3cc(CCCN4CCN(c5cccc(-c6cnc7ccc(N8CCC[C@@H]8c8cccc(F)c8)nn67)n5)CC4)ccc3C2=O)C(=O)N1` (stereo partly drawn) [TR-186, 3-(5-(3-(4-(6-(6-((R)-2-(3-fluorophenyl)pyrrolidin-1-yl)imidazo[1,2-b]pyridazin-3-yl)pyridin-2-yl)piperazin-1-yl)propyl)-1-oxoisoindolin-2-yl)piperidine-2,6-dione], 5.8 nM.
In the case of `O=C1CCC(N2Cc3ccc(C#CCN4CCN(c5cccc(-c6cnc7ccc(N8CCC[C@@H]8c8cccc(F)c8)nn67)n5)CC4)cc3C2=O)C(=O)N1` (stereo partly drawn) [TR-187, 3-(6-(3-(4-(6-(6-((R)-2-(3-fluorophenyl)pyrrolidin-1-yl)imidazo[1,2-b]pyridazin-3-yl)pyridin-2-yl)piperazin-1-yl)prop-1-yn-1-yl)-1-oxoisoindolin-2-yl)piperidine-2,6-dione], the IC50 was 18.6 nM.
Same read-out and setting: in the case of `O=C1CCC(N2Cc3cc(C#CCN4CCN(c5cccc(-c6cnc7ccc(N8CCC[C@@H]8c8cccc(F)c8)nn67)n5)CC4)ccc3C2=O)C(=O)N1` (stereo partly drawn) [TR-188, 3-(5-(3-(4-(6-(6-((R)-2-(3-Fluorophenyl)pyrrolidin-1-yl)imidazo[1,2-b]pyridazin-3-yl)pyridin-2-yl)piperazin-1-yl)prop-1-yn-1-yl)-1-oxoisoindolin-2-yl)piperidine-2,6-dione] it was 16.8 nM; in that of `O=C1CCC(N2Cc3ccc(NCC(=O)N4CCN(c5cccc(-c6cnc7ccc(N8CCC[C@@H]8c8cccc(F)c8)nn67)n5)CC4)cc3C2=O)C(=O)N1` (stereo partly drawn) [TR-189, 3-(6-((2-(4-(6-(6-((R)-2-(3-fluorophenyl)pyrrolidin-1-yl)imidazo[1,2-b]pyridazin-3-yl)pyridin-2-yl)piperazin-1-yl)-2-oxoethyl)amino)-1-oxoisoindolin-2-yl)piperidine-2,6-dione], 2.5 nM.
The same measure, in the same setting: in the case of `O=C1CCC(N2Cc3cc(NCC(=O)N4CCN(c5cccc(-c6cnc7ccc(N8CCC[C@@H]8c8cccc(F)c8)nn67)n5)CC4)ccc3C2=O)C(=O)N1` (stereo partly drawn) [TR-190, 3-(5-((2-(4-(6-(6-((R)-2-(3-fluorophenyl)pyrrolidin-1-yl)imidazo[1,2-b]pyridazin-3-yl)pyridin-2-yl)piperazin-1-yl)-2-oxoethyl)amino)-1-oxoisoindolin-2-yl)piperidine-2,6-dione] it was 3.6 nM.
On the same count and under the same terms, in the case of `O=C1CCC(N2Cc3cc(NCCN4CCN(c5cccc(-c6cnc7ccc(N8CCC[C@@H]8c8cccc(F)c8)nn67)n5)CC4)ccc3C2=O)C(=O)N1` (stereo partly drawn) [TR-191, 3-(5-((2-(4-(6-(6-((R)-2-(3-fluorophenyl)pyrrolidin-1-yl)imidazo[1,2-b]pyridazin-3-yl)pyridin-2-yl)piperazin-1-yl)ethyl)amino)-1-oxoisoindolin-2-yl)piperidine-2,6-dione] it was 5.4 nM.
On to `O=C1CCC(N2C(=O)c3ccc(NCCNC4CN(c5cccc(-c6cnc7ccc(N8CCC[C@@H]8c8cccc(F)c8)nn67)n5)C4)cc3C2=O)C(=O)N1` (stereo partly drawn) [TR-192, 2-(2,6-Dioxopiperidin-3-yl)-5-((2-((1-(6-(6-((R)-2-(3-fluorophenyl)pyrrolidin-1-yl)imidazo[1,2-b]pyridazin-3-yl)pyridin-2-yl)azetidin-3-yl)amino)ethyl)amino)isoindoline-1,3-dione], for which the IC50 amounted to 103 nM.
With `O=C1CCC(N2C(=O)c3ccc(NCCC4CN(c5cccc(-c6cnc7ccc(N8CCC[C@@H]8c8cccc(F)c8)nn67)n5)C4)cc3C2=O)C(=O)N1` (stereo partly drawn) [TR-193, 2-(2,6-Dioxopiperidin-3-yl)-5-((2-(1-(6-(6-((R)-2-(3-fluorophenyl)pyrrolidin-1-yl)imidazo[1,2-b]pyridazin-3-yl)pyridin-2-yl)azetidin-3-yl)ethyl)amino)isoindoline-1,3-dione], the IC50 was determined as 1100 nM.
`O=C1CCC(N2C(=O)c3ccc(CCC(=O)N4CCN(c5cccc(-c6cnc7ccc(N8CCC[C@@H]8c8cccc(F)c8)nn67)n5)CC4)cc3C2=O)C(=O)N1` (stereo partly drawn) [TR-194, 2-(2,6-Dioxopiperidin-3-yl)-5-(3-(4-(6-(6-((R)-2-(3-fluorophenyl)pyrrolidin-1-yl)imidazo[1,2-b]pyridazin-3-yl)pyridin-2-yl)piperazin-1-yl)-3-oxopropyl)isoindoline-1,3-dione]: the IC50 is 7.4 nM.
Still for that read-out and setting: in the case of `O=C1CCC(N2C(=O)c3ccc(/C=C/C(=O)N4CCN(c5cccc(-c6cnc7ccc(N8CCC[C@@H]8c8cccc(F)c8)nn67)n5)CC4)cc3C2=O)C(=O)N1` (stereo partly drawn) [TR-195, 2-(2,6-Dioxopiperidin-3-yl)-5-((E)-3-(4-(6-(6-((R)-2-(3-fluorophenyl)pyrrolidin-1-yl)imidazo[1,2-b]pyridazin-3-yl)pyridin-2-yl)piperazin-1-yl)-3-oxoprop-1-en-1-yl)isoindoline-1,3-dione] it was 23.6 nM; in that of `O=C1CCC(N2Cc3ccc(NCCN4CCN(c5cccc(-c6cnc7ccc(N8CCC[C@@H]8c8cccc(F)c8)nn67)n5)CC4)cc3C2=O)C(=O)N1` (stereo partly drawn) [TR-196, 3-(6-((2-(4-(6-(6-((R)-2-(3-fluorophenyl)pyrrolidin-1-yl)imidazo[1,2-b]pyridazin-3-yl)pyridin-2-yl)piperazin-1-yl)ethyl)amino)-1-oxoisoindolin-2-yl)piperidine-2,6-dione], 3.1 nM; in that of `O=C1CCC(N2C(=O)c3ccc(CN4CCN(c5cccc(-c6cnc7ccc(N8CCC[C@@H]8c8cccc(F)c8)nn67)n5)CC4)cc3C2=O)C(=O)N1` (stereo partly drawn) [TR-197, 2-(2,6-Dioxopiperidin-3-yl)-5-((4-(6-(6-((R)-2-(3-fluorophenyl)pyrrolidin-1-yl)imidazo[1,2-b]pyridazin-3-yl)pyridin-2-yl)piperazin-1-yl)methyl)isoindoline-1,3-dione], 67.1 nM.
With `O=C1CCC(N2C(=O)c3ccc(NCCCOCCN4CCN(c5cccc(-c6cnc7ccc(N8CCC[C@@H]8c8cccc(F)c8)nn67)n5)CC4)cc3C2=O)C(=O)N1` (some centres unmarked) [TR-199], the IC50 amounted to 39.8 nM.
Same read-out and setting: in the case of `O=C1CCC(N2Cc3cc(OCCN4CCN(c5cccc(-c6cnc7ccc(N8CCC[C@@H]8c8cccc(F)c8)nn67)n5)CC4)ccc3C2=O)C(=O)N1` (stereo partly drawn) [TR-200, 3-(5-(2-(4-(6-(6-((R)-2-(3-fluorophenyl)pyrrolidin-1-yl)imidazo[1,2-b]pyridazin-3-yl)pyridin-2-yl)piperazin-1-yl)ethoxy)-1-oxoisoindolin-2-yl)piperidine-2,6-dione] it was 101 nM; in that of `O=C1CCC(N2Cc3ccc(OCCN4CCN(c5cccc(-c6cnc7ccc(N8CCC[C@@H]8c8cccc(F)c8)nn67)n5)CC4)cc3C2=O)C(=O)N1` (stereo partly drawn) [TR-201, 3-(6-(2-(4-(6-(6-((R)-2-(3-fluorophenyl)pyrrolidin-1-yl)imidazo[1,2-b]pyridazin-3-yl)pyridin-2-yl)piperazin-1-yl)ethoxy)-1-oxoisoindolin-2-yl)piperidine-2,6-dione], over 500 nM; in that of `O=C1CCC(N2Cc3ccc(C#CC(=O)N4CCN(c5cccc(-c6cnc7ccc(N8CCC[C@@H]8c8cccc(F)c8)nn67)n5)CC4)cc3C2=O)C(=O)N1` (stereo partly drawn) [TR-202, 3-(6-(3-(4-(6-(6-((R)-2-(3-fluorophenyl)pyrrolidin-1-yl)imidazo[1,2-b]pyridazin-3-yl)pyridin-2-yl)piperazin-1-yl)-3-oxoprop-1-yn-1-yl)-1-oxoisoindolin-2-yl)piperidine-2,6-dione], 4.3 nM.
The same measure, in the same setting: the figure for `O=C1CCC(N2Cc3cc(C#CC(=O)N4CCN(c5cccc(-c6cnc7ccc(N8CCC[C@@H]8c8cccc(F)c8)nn67)n5)CC4)ccc3C2=O)C(=O)N1` (some centres unmarked) [TR-203] is 3.7 nM; for `O=C1CCC(N2C(=O)c3ccc(CCN4CCN(c5cccc(-c6cnc7ccc(N8CCC[C@@H]8c8cccc(F)c8)nn67)n5)CC4)cc3C2=O)C(=O)N1` (stereo partly drawn) [TR-204, 2-(2,6-dioxopiperidin-3-yl)-5-(2-(4-(6-(6-((R)-2-(3-fluorophenyl)pyrrolidin-1-yl)imidazo[1,2-b]pyridazin-3-yl)pyridin-2-yl)piperazin-1-yl)ethyl)isoindoline-1,3-dione] it is 10.6 nM.

The experiment is the same for the next values; noted with them: Homo sapiens, 72 h; Table 4; KM12 cell viability, CellTiter-Glo, 3 days; read-out: IC50.
`O=C1CCC(N2Cc3cc(N4CC(CN5CCN(c6cccc(-c7cnc8ccc(N9CCC[C@@H]9c9cccc(F)c9)nn78)n6)CC5)C4)ccc3C2=O)C(=O)N1` (stereo partly drawn) [TR-205, 3-(5-(3-((4-(6-(6-((R)-2-(3-Fluorophenyl)pyrrolidin-1-yl)imidazo[1,2-b]pyridazin-3-yl)pyridin-2-yl)piperazin-1-yl)methyl)azetidin-1-yl)-1-oxoisoindolin-2-yl)piperidine-2,6-dione]: the IC50 worked out at 122 nM.
On to `O=C1CCC(N2Cc3cc(NC4CN(c5cccc(-c6cnc7ccc(N8CCC[C@@H]8c8cccc(F)c8)nn67)n5)C4)ccc3C2=O)C(=O)N1` (stereo partly drawn) [TR-206, 3-(5-((1-(6-(6-((R)-2-(3-Fluorophenyl)pyrrolidin-1-yl)imidazo[1,2-b]pyridazin-3-yl)pyridin-2-yl)azetidin-3-yl)amino)-1-oxoisoindolin-2-yl)piperidine-2,6-dione], for which the IC50 was 15.8 nM.
Still for that read-out and setting: in the case of `O=C1CCC(N2Cc3cc(N4CCN(c5cccc(-c6cnc7ccc(N8CCC[C@@H]8c8cccc(F)c8)nn67)n5)CC4)ccc3C2=O)C(=O)N1` (stereo partly drawn) [TR-207, 3-(5-(4-(6-(6-((R)-2-(3-Fluorophenyl)pyrrolidin-1-yl)imidazo[1,2-b]pyridazin-3-yl)pyridin-2-yl)piperazin-1-yl)-1-oxoisoindolin-2-yl)piperidine-2,6-dione] it was 31.3 nM.
